In article PMC6886872, “Discovery of a small molecule inhibitor targeting dengue virus NS5 RNA-dependent RNA polymerase” (PLoS Neglected Tropical Diseases, 2019):
Where two headings read alike, the source gives them in different places.

Experiments:
full-length DENV3 NS5 = biological target: T1, full-length DENV3 NS5 (Dengue virus type 3, UniProt P27915); experiment: biochemical
T1 construct: full-length NS5 proteins, comprising the N-terminal MTase and the C-terminal RdRp; His-tag (N, cleaved yes); SUMO (N, cleaved yes); made in house; host or cells: E. coli KRX

full-length DENV4 NS5 = biological target: T2, full-length DENV4 NS5 (Dengue virus type 4, UniProt P09866); experiment: biochemical; conditions: read-out: IC50 Polymerase assay
T2 construct: full-length NS5 proteins, comprising the N-terminal MTase and the C-terminal RdRp; His-tag (N, cleaved yes); SUMO (N, cleaved yes); made in house; host or cells: E. coli KRX

DENV1 (Mochizuki strain) = experiment: Cell-based antiviral assay, viral RNA in supernatant of infected Vero cells (RT-qPCR); design: species or system Dengue virus serotype 1 (DENV1); conditions: Dengue virus, 72 h, viral RNA 3 days after infection
Procedure: (§1) The experiments were performed in triplicate.

DENV2 16681 strain = experiment: as above; conditions: Dengue virus, 72 h; DENV2 16681, Vero cells, viral RNA 3 days after infection
Procedure: as §1

DENV3 (H87 strain) = experiment: as above; conditions: 72 h, viral RNA 3 days after infection
Procedure: as §1

DENV4 (H241 strain) = experiment: as above; conditions: 72 h, viral RNA 3 days after infection
Procedure: as §1

DENV2 P04/08 strain = experiment: as above; conditions: 72 hours after infection
[1] = test system: recombinant DENV2 (WT, C780A, C780Q NS5); type: cell-based
Vero cells = experiment: Cytotoxicity, WST-1 assay; type: cell-based; conditions: two days culture
Procedure: The cytotoxic activities of the compounds were tested using a WST-1 assay (Roche Diagnostics), according to the manufacturer’s instructions. […] Ten μL of WST-1 solution was added to each well, and the cells were further incubated for 30 min. The absorbance was measured at 450 nm, with subtraction of the nonspecific background at 650 nm.

[2] = test system: NS5 proteins from DENV1–4; type: biochemical; conditions: range over NS5 proteins from DENV1–4; read-out: IC50 values, RdRp activities
DENV1–4 infections = experiment: Cell-based antiviral assay, summary over serotypes; conditions: range over DENV1–4; read-out: EC50 values, antiviral activities
Procedure: as §1

CC(=O)Oc1ccc2oc(=O)sc2c1 [RK-0404678, (2-Oxo-1,3-benzoxathiol-5-yl) acetate]
IC50 (full-length DENV3 NS5): 287 ± 11 µM | IC50 (full-length DENV4 NS5): 445 ± 23 µM | EC50 (DENV1 (Mochizuki strain)): 29.5 ± 4.2 µM | EC50 (DENV2 16681 strain): 6 ± 0.3 µM | EC50 (DENV3 (H87 strain)): 29.4 ± 1.8 µM | EC50 (DENV4 (H241 strain)): 31.9 ± 2.8 µM | antiviral effect on DENV2 P04/08 strain compared with 16681 strain (DENV2 P04/08 strain): comparable effect | EC50 ([1]; DENV2 NS5 C780A mutant virus (Site 1)): 3.3 ± 1.1 µM | EC50 ([1]; DENV2 NS5 C780Q mutant virus (Site 1)): 12.8 ± 2.2 µM | EC50 ([1]; WT (recombinant) DENV2 virus): 7.1 ± 0.67 µM | cytotoxicity in Vero cells (Vero cells): marginal cytotoxicity even at the highest concentration (50 μM) | IC50 [2]: 46.2 to 445 µM | EC50 (DENV1–4 infections): 6 to 31.9 µM
